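Cells were grown in 96-well plates and exposed to each compound for 48 hours at five concentrations; endpoints were interpolated linearly between bracketing concentrations, or set to the highest concentration if not reached. At the GI50, growth is halved.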 Calls of active or inactive are those of the source. No stated cut-off is given here; in the data, active = GI50 up to about 1.1 µM and inactive = higher.
Legend:
Assay in all cases: NCI tumour cell line growth inhibition, 48 h
[1] = test system: U-251
[2] = test system: HT-29
[3] = test system: NCI/ADR-RES
[4] = test system: NCI-H522
[5] = test system: UO-31
[6] = test system: COLO 205
[7] = test system: SK-MEL-28
[8] = test system: SF-539
[9] = test system: HOP-62
[10] = test system: SF-295
[11] = test system: RXF 393
[12] = test system: UACC-62
[13] = test system: KM12
[14] = test system: MDA-N
[15] = test system: A498
[16] = test system: HL-60
[17] = test system: CAKI-1
[18] = test system: EKVX
[19] = test system: SF-268
[20] = test system: SNB-75
[21] = test system: Hs-578T
[22] = test system: DU-145
[23] = test system: HCT-116
[24] = test system: SNB-19
[25] = test system: NCI-H226
[26] = test system: OVCAR-8
[27] = test system: A549
[28] = test system: SK-MEL-2
[29] = test system: BT-549
[30] = test system: MCF7
[31] = test system: SW-620
[32] = test system: MDA-MB-231
[33] = test system: OVCAR-5
[34] = test system: RPMI-8226
[35] = test system: M14
[36] = test system: SN12C
[37] = test system: CCRF-CEM
[38] = test system: ACHN
[39] = test system: 786-0
[40] = test system: LOX IMVI
[41] = test system: NCI-H23
[42] = test system: HCT-15
[43] = test system: NCI-H460
[44] = test system: T47D
[45] = test system: OVCAR-3
[46] = test system: IGROV-1
[47] = test system: Malme-3M
[48] = test system: SK-OV-3
[49] = test system: SR
[50] = test system: SK-MEL-5
[51] = test system: PC-3
[52] = test system: OVCAR-4
[53] = test system: MDA-MB-435
[54] = test system: UACC-257
[55] = test system: TK-10
[56] = test system: HCC 2998
[57] = test system: HOP-92
[58] = test system: MOLT-4

In the case of `CCN(CC)CCSc1c2cc(OC)ccc2nc2ccc(OC)cc12`, the GI50 [1] is reported as 7.94 µM (inactive), the GI50 [2] is reported as 2.05 µM (inactive) and the GI50 [3] is reported as 7.67 µM (inactive). The GI50 [4] was 1.59 µM (inactive), the GI50 [5] was 2.37 µM (inactive) and the GI50 [6] was 1.98 µM (inactive). The GI50 [7] was 10.3 µM (inactive), the GI50 [8] was 2.45 µM (inactive) and the GI50 [9] was 16.7 µM (inactive). For the same compound, the GI50 [10] was 19.4 µM (inactive), the GI50 [11] was 7.38 µM (inactive) and the GI50 [12] was 14.3 µM (inactive). For the same compound, the GI50 [13] was 5.09 µM (inactive), the GI50 [14] was 4.39 µM (inactive) and the GI50 [15] was 23 µM (inactive). For the same compound, the GI50 [16] was 5.3 µM (inactive), the GI50 [17] was 7.53 µM (inactive) and the GI50 [18] was 9.59 µM (inactive). The GI50 [19] was 3.08 µM (inactive), the GI50 [20] was 14.4 µM (inactive) and the GI50 [21] was 1.68 µM (inactive). The GI50 [22] was 2.05 µM (inactive), the GI50 [23] was 2.26 µM (inactive) and the GI50 [24] was 12.1 µM (inactive). The GI50 [25] was 16.2 µM (inactive), the GI50 [26] was 3.12 µM (inactive) and the GI50 [27] was 16.1 µM (inactive). For the same compound, the GI50 [28] was 17 µM (inactive), the GI50 [29] was 5.69 µM (inactive) and the GI50 [30] was 2.51 µM (inactive). The GI50 [31] was 2.56 µM (inactive), the GI50 [32] was 6.53 µM (inactive) and the GI50 [33] was 15.8 µM (inactive). The GI50 [34] was 2.4 µM (inactive), the GI50 [35] was 6.73 µM (inactive) and the GI50 [36] was 3.03 µM (inactive). The GI50 [37] was 2.86 µM (inactive), the GI50 [38] was 2.21 µM (inactive) and the GI50 [39] was 1.85 µM (inactive). For the same compound, the GI50 [40] was 2.17 µM (inactive), the GI50 [41] was 3.3 µM (inactive) and the GI50 [42] was 2.86 µM. For the same compound, the GI50 [43] was 9.75 µM (inactive), the GI50 [44] was 1.93 µM (inactive) and the GI50 [45] was 2.59 µM (inactive). For the same compound, the GI50 [46] was 1.95 µM (inactive), the GI50 [47] was 2.75 µM (inactive) and the GI50 [48] was 25.1 µM (inactive). For the same compound, the GI50 [49] was 2.43 µM (inactive), the GI50 [50] was 13.6 µM (inactive) and the GI50 [51] was 3.56 µM (inactive). The GI50 [52] was 6.03 µM (inactive), the GI50 [53] was 7.03 µM (inactive) and the GI50 [54] was 4.35 µM (inactive). The GI50 [55] was 4.65 µM (inactive), the GI50 [56] was 13.5 µM (inactive) and the GI50 [57] was 2.19 µM (inactive). The GI50 [58] was 2.29 µM (inactive).

From ChEMBL document CHEMBL1201862, “PubChem BioAssay data set” (2004)
